Reference: US8945597B2, “Botanical insecticides” (priority 2012, dated 2015)

Legend:
[1] = system: pest insects; test: Insecticidal properties of terpenes/terpenoids (test not described); settings: tested and proved; test details not given
[2] = system: Aphid nymphs (Aphis medicagini); test: Insecticidal efficacy test against aphid nymphs (leaf disc dip); assay type: in vivo; settings: concentration 20 mg/L; leaf disc dipped 5 seconds; mortality after 24 hours
Protocol: Insecticidal Efficacy Test Against Aphid Nymphs (Aphis medicagini)
Take the first preferred embodiment, diluted in water in two different concentrations, A with 1% weight content of active ingredients, B with 0.1% active ingredients. Vicia leaf cut into round disc in 2 cm diameter, back up placed on a small cotton ball, and then mounted in a Petri dish, 5 ml water is added. Mature aphids are transferred onto the leaf disc to hatch aphid nymphs. Mature aphids are removed after 24 hours and 20-30 aphid nymphs are left on the leave disc and continue to culture for one day. The leave disc with aphid nymphs is merged into solution A and B for 5 seconds, excessive fluid on the leaf surface is absorbed by paper tower. Leaf disc is then mounted back to the cotton ball for another 24 hours observation. Use Nitenpyram 20 mg/L for comparison and water as control.

[3] = system: planthopper nymphs (nilaparvata legen); test: Insecticidal efficacy test against planthopper nymphs (POTTER sprayer); assay type: in vivo; settings: concentration 20 mg/L; sprayed; mid 3rd instar nymphs; mortality after 72 hours
Protocol: Insecticidal efficacy test against planthopper nymphs (nilaparvata legen). Some rice seedling leaves are mounted with white quartz sand in a Petri dish with 5 cm diameter containing 5 ml water. Planthoppers nymphs of mid 3rd instar were anesthetized by CO2. 20-30 anesthetized nymphs are transferred to each Petri dish and placed under the POTTER sprayer. Same amount of testing chemical is sprayed into each Petri dish and covered with transparent plastic cup. Use nitenpyram 20 mg/L for comparison and water as control.

Q: For `C=C1CC/C=C(\C)CC[C@@H]2[C@@H]1CC2(C)C` [β-caryophyllene], which insecticidal properties [1] is on record?
A: Its insecticidal properties is “significant insecticidal properties”.

Q: With pinene as the compound, how does the insecticidal properties [1] read?
A: Its insecticidal properties is “significant insecticidal properties”.

Q: `C=CCS[S@@+]([O-])CC=C` (stereo in doubt) [allicin] was tested. Which insecticidal properties [1] did it give?
A: Its insecticidal properties is “significant insecticidal properties”.

Q: With ocimene as the compound, how does the insecticidal properties [1] read?
A: Its insecticidal properties is “significant insecticidal properties”.

Q: How did the insecticidal properties [1] turn out when `CC12CCC(CC1)C(C)(C)O2` [1,8-cineole] was run?
A: The insecticidal properties was “significant insecticidal properties”.

Q: How did the insecticidal properties [1] turn out when `CC(C)[C@@H]1CC[C@@H](C)C[C@H]1O` [3-p-menthanol] was run?
A: The insecticidal properties was “significant insecticidal properties”.

Q: How did the insecticidal properties [1] turn out when `Cc1ccc(C(C)C)cc1` [p-cymene] was run?
A: Its insecticidal properties is “significant insecticidal properties”.

Q: What does the source list for `CCN(Cc1ccc(Cl)nc1)/C(=C/[N+](=O)[O-])NC` [Nitenpyram]?
A: MOTALITY % [2]: 100%; MOTALITY % [3]: 100%

Q: Which insecticidal properties [1] does the source give for `C[C@@H]1CC[C@H]2C(C)(C)C3C[C@@]12CC[C@@]3(C)O` [Embodiment 8-epicedrol, 8-epicedrol] here?
A: Its insecticidal properties is “significant insecticidal properties”.
